From patent US6180651A, “Diarylmethylidenefuran derivatives, processes for their preparation and their uses in therapeutics” (Bristol-Myers Squibb, priority 1996, dated 2001)

How the values were obtained:
carrageenin oedema = test: anti-inflammatory activity, carrageenin oedema test; format: in vivo; settings: rat, oral; dose which induces 50% decrease in the volume of the oedema; read-out: Anti-inflammatory activity ID50
Procedure: (§1) The anti-inflarnmatory activity of the compounds of the Examples was evaluated by the carrageenin oedema method and the analgesic activity was evaluated by the kaolin arthritis method.
Anti-inflammatory Activity:
The anti-inflammatory activity is evaluated in the rat by the carrageenin oedema test. The product is administered orally at a rate of 2.5 ml/100 g (n=6 animals per dose) 2 h 30 min after oral hyperhydration (2.5 m/100 g); one hour after administration of the product, the oedema is induced by the plantar subcutaneous injection of 2% aqueous carrageenin solution. The results are expressed as the ID50, the dose in mg/kg which induces 50% decrease in the volume of the oedema, calculated by linear regression using the maximum oedema volume obtained for each product tested.

kaolin arthritis = test: analgesic activity, kaolin arthritis test; format: in vivo; settings: rat, oral; dose which induces 50% decrease of the maximum quotation in the control batch; read-out: Analgesic activity DE50
Procedure: as §1
The analgesic activity is evaluated in the rat by the kaolin arthritis test. Thirty minutes after the intra-articular administration of 10% aqueous kaolin suspension, the product is administered orally at a rate of 1 ml/100 g (n=10 animals per dose). The results are expressed as DE50, the dose in mg/kg which induces 50% decrease of the maximum quotation in the control batch, calculated by linear regression.

COX-2 = target: T1, COX-2 (Ovis aries, UniProt P79208); test: inhibition of COX-2 enzymatic activity (PGE2 by EIA); format: biochemical, ewe; settings: for IC50: purified enzyme from ewe placenta, arachidonic acid 4 μM, n=1 to 4 determinations; for Selectivity COX-1/COX-2 ratio: ratio of IC50 COX-1 / IC50 COX-2
T1 construct: purified enzyme from ewe placenta; from tissue; host or cells: ewe placenta (purified enzyme)
T1 sequence (P79208 17-603): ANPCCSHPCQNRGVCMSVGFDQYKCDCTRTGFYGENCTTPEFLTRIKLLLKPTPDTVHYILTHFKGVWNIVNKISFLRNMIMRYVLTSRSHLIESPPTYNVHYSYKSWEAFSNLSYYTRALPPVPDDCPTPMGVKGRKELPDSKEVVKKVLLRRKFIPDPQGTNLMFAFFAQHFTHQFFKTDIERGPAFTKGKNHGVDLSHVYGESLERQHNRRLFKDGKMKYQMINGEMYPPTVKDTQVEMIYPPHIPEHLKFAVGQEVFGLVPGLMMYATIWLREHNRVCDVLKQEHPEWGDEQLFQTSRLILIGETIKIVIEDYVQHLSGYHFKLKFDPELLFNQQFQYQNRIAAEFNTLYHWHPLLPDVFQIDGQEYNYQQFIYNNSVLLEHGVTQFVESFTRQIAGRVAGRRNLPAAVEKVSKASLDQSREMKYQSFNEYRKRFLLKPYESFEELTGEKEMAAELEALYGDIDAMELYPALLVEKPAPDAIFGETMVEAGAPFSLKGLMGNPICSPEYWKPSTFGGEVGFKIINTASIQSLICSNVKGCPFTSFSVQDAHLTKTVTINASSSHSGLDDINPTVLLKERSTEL
Procedure: (§2) Inhibition of the COX-1 and COX-2 Enzymatic Activities The test molecule is preincubated for 10 minutes at 25° C. with 2 U of COX-1 (purified enzyme from ram seminal vesicles) or 1 U of COX-2 (purified enzyme from ewe placenta). Arachidonic acid (6 μM for COX-1, 4 μM for COX-2) is added to the reaction medium and incubation is carried out for 5 minutes at 25° C. When incubation has ended, the enzymatic reaction is stopped by the addition of 1 N HCl and the PGE2 produced is determined by EIA. The results are expressed as IC50, the concentration in nM which corresponds to 50% inhibition of the maximal enzymatic activity on the COX-1 and COX-2 (n=1 to 4 determinations).

COX-1 = target: T2, COX-1 (Ovis aries, UniProt P05979); test: inhibition of COX-1 enzymatic activity (PGE2 by EIA); format: biochemical; settings: purified enzyme from ram seminal vesicles; arachidonic acid 6 μM; n=1 to 4 determinations
T2 construct: purified enzyme from ram seminal vesicles; from tissue; host or cells: ram seminal vesicles (purified enzyme)
T2 sequence (P05979 25-600): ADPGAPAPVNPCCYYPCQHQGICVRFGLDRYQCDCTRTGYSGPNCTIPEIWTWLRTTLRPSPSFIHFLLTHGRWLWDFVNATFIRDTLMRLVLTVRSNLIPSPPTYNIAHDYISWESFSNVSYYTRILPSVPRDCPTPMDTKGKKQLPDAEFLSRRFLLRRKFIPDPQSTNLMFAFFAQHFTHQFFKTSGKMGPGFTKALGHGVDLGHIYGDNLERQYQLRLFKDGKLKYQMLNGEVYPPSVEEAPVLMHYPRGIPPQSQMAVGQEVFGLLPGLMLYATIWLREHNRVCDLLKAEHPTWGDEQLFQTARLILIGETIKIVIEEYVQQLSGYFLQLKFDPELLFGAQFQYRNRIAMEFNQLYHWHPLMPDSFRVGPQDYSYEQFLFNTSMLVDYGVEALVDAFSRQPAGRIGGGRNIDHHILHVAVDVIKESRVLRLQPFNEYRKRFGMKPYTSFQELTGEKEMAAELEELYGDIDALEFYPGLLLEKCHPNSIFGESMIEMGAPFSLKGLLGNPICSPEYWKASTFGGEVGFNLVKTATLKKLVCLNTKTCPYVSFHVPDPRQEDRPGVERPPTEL
Procedure: as §2

SMILES	IC50 (COX-2)	Selectivity COX-1/COX-2 ratio (COX-2)	IC50 (COX-1)	ED50 (carrageenin oedema)	ED50 (kaolin arthritis)
CS(=O)(=O)c1ccc(/C(=C2/CCOC2=O)c2ccc(Cl)cc2)cc1 [8 (E isomer), (E)-3-[1-(4-chlorophenyl)-1-(4-methanesulphonylphenyl)methylidene]dihydrofuran-2-one]	–	–	–	> 30 mg/kg	–
CS(=O)(=O)c1ccc(/C(=C2\CCOC2=O)c2ccc(Cl)c(Cl)c2)cc1 [18 (Z isomer), (Z)-3-[1-(3,4-Dichlorophenyl)-1-(4-methanesulphonylphenyl)-methylidene]dihydrofuran-2-one]	132 ± 32 nM	555	73200 nM	> 30 mg/kg	6.1 mg/kg
CS(=O)(=O)c1ccc(/C(=C2\CCOC2=O)c2cccc(Cl)c2)cc1 [23 (Z isomer), (Z)-3-[1-(3-Chlorophenyl)-1-(4-methanesulphonylphenyl)-methylidene]dihydrofuran-2-one]	–	–	–	9.3 mg/kg	7.2 mg/kg
CS(=O)(=O)c1ccc(/C(=C2\CCOC2=O)c2ccccc2)cc1 [28 (E isomer), (E)-3-[1-Phenyl-1-(4-methanesulphonylphenyl)methylidene]-dihydrofuran-2-one]	18400 nM	> 0.5	> 10000 nM	10.1 mg/kg	26.1 mg/kg
CCC1C/C(=C(/c2ccc(F)cc2)c2ccc(S(C)(=O)=O)cc2)C(=O)O1 (stereo not drawn) [34 (E isomer), (E)-5-Ethyl-3-[1-(4-fluorophenyl)-1-(4-methanesulphonylphenyl)methylidene]dihydrofuran-2-one]	694 nM	> 144	> 100000 nM	–	38.8 mg/kg
CS(=O)(=O)c1ccc(/C(=C2\CCOC2=O)c2cc(Cl)cc(Cl)c2)cc1 [70 (Z isomer), (Z)-3-[1-(3,5-dichlorophenyl)-1-(4-methanesulphonylphenyl)methylidene]-dihydro-furan-2-one]	225 nM	> 444	> 100000 nM	5.5 mg/kg	21.5 mg/kg
CS(=O)(=O)c1ccc(/C(=C2\CCOC2=O)c2ccc(F)cc2F)cc1 [75 (Z isomer), (Z)-3-[1-(2,4-difluorophenyl)-1-(4-methanesulphonylphenyl)methylidene]-dihydro-furan-2-one]	–	–	–	4.6 mg/kg	–
Cc1ccc(/C(=C2/CCOC2=O)c2ccc(S(C)(=O)=O)cc2)cc1 [85 (E isomer), (E)-3-[1-(4-methylphenyl)-1-(4-methanesulphonylphenyl)methylidene]-dihydro-furan-2-one]	350 nM	> 286	> 100000 nM	> 30 mg/kg	> 30 mg/kg
CS(=O)(=O)c1ccc(/C(=C2\CCOC2=O)c2ccc(F)c(Cl)c2)cc1 [95 (Z isomer), (Z)-3-[1-(3-chloro-4-fluorophenyl)-1-(4-methanesulphonylphenyl)methylidene]-dihydrofuran-2-one]	205 ± 35 nM	1510	309000 ± 27500 nM	1.6 mg/kg	5.8 mg/kg
Cc1ccc(/C(=C2/CCOC2=O)c2ccc(S(N)(=O)=O)cc2)cc1F [130 (Z isomer), (Z)-4-[(3-fluoro-4-methylphenyl)-(2-oxo-dihydrofuran-3-ylidene)methyl]benzenesulphonamide]	131 ± 19 nM	349	45700 nM	2 mg/kg	2.4 mg/kg

Further lines, with some results ahead:

IC50 (COX-2)	Selectivity COX-1/COX-2 ratio (COX-2)	IC50 (COX-1)	SMILES	ED50 (carrageenin oedema)	ED50 (kaolin arthritis)
610 nM	> 164	> 100000 nM	CS(=O)(=O)c1ccc(/C(=C2\CCOC2=O)c2cccc(F)c2)cc1 [13 (Z isomer), (Z)-3-[1-(3-fluorophenyl)-1-(4-methanesulphonylphenyl)methylidene]dihydrofuran-2-one]	3.9 mg/kg	14.1 mg/kg
627 nM	> 159	> 100000 nM	CS(=O)(=O)c1ccc(/C(=C2/CCOC2=O)c2cccc(Cl)c2)cc1 [23 (E), (E)-3-[1-(3-chlorophenyl)-1-(4-methanesulphonylphenyl)methyl-idene]-dihydrofuran-2-one]	–	–
780 nM	> 128	> 100000 nM	CC1(C)C/C(=C(/c2ccc(F)cc2)c2ccc(S(C)(=O)=O)cc2)C(=O)O1 [31 (E isomer), (E)-5,5-Dimethyl-3-[1-(4-fluorophenyl)-1-(4-methanesulphonylphenyl)methylidene]dihydrofuran-2-one]	3.1 mg/kg	14.2 mg/kg
418 nM	> 239	> 100000 nM	Cc1cccc(/C(=C2/CCOC2=O)c2ccc(S(C)(=O)=O)cc2)c1 [49 (Z isomer), (Z)-3-[1-(3-Methylphenyl)-1-(4-methanesulphonylphenyl)-methylidene]dihydrofuran-2-one]	> 30 mg/kg	> 30 mg/kg
710 nM	> 141	> 100000 nM	CS(=O)(=O)c1ccc(/C(=C2\CCOC2=O)c2ccc(F)c(F)c2)cc1 [54 (Z isomer), (Z)-3-[1-(3,4-Difluorophenyl)-1-(4-methanesulphonylphenyl)-methylidene]dihydrofuran-2-one]	> 30 mg/kg	10.8 mg/kg
296 ± 107 nM	274	81000 nM	NS(=O)(=O)c1ccc(/C(=C2\CCOC2=O)c2ccc(F)cc2)cc1 [60 (E isomer), (E)-4-[(4-fluorophenyl)-(2-oxo-dihydrofuran-3-ylidene)methyl]benzenesulphonamide]	1.7 mg/kg	20.9 mg/kg
518 nM	> 193	> 100000 nM	CS(=O)(=O)c1ccc(/C(=C2\CCOC2=O)c2cc(F)cc(F)c2)cc1 [80 (Z isomer), (Z)-3-[1-(3,5-difluorophenyl)-1-(4-methanesulphonylphenyl)methylidene]-dihydro-furan-2-one]	4.8 mg/kg	5.8 mg/kg
458 nM	> 218	> 100000 nM	CS(=O)(=O)c1ccc(/C(=C2\CCOC2=O)c2cccc(Br)c2)cc1 [90 (Z isomer), (Z)-3-[1-(3-bromophenyl)-1-(4-methanesulphonylphenyl)methylidene]-dihydro-furan-2-one]	17.2 mg/kg	–
166 nM	373	62000 nM	CS(=O)(=O)c1ccc(/C(=C2\CCOC2=O)c2ccc(Br)cc2)cc1 [100 (Z isomer), (Z)-3-[1-(4-bromophenyl)-1-(4-methanesulphonylphenyl)methylidene]-dihydro-furan-2-one]	3.6 mg/kg	–
